Columns and labels:
C6 [1] = assay: Neutralization of colony - stimulating activity was determined by incubating supernatants from stromal cells stimulated by compound (1000 ng/mL) with an antibody raised against KC[38-72].; format: functional, Mus musculus
C6 [2] = assay: HSF produced by bone marrow-derived stromal cell lines C6.4 on stimulation with the compound at (1000 ng/mL) was determined in vitro in an GM-CFC assay.; format: functional, Mus musculus
[3] = in the assay text read “100 ng/mL” for “1000 ng/mL”

Row | SMILES | HSF (C6 [2]) | also measured
1 | NCCCC[C@H](NC(=O)[C@H](CCCC[C@H](NC(=O)[C@H](CC(=O)O)NC(=O)[C@H](CCC(=O)O)NC(=O)[C@@H]1CCC(=O)N1)C(=O)N[C@@H](CCCCN)C(=O)O)NC(=O)[C@H](CC(=O)O)NC(=O)[C@H](CCC(=O)O)NC(=O)[C@@H]1CCC(=O)N1)C(=O)O [GLASPIMOD] |  | HSF (C6 [1]): 0 units/mL
2 | NCCCC[C@H](NC(=O)[C@H](CCCC[C@H](NC(=O)[C@H](CC(=O)O)NC(=O)[C@H](CO)NC(=O)c1ccc[nH]1)C(=O)N[C@@H](CCCCN)C(=O)O)NC(=O)[C@H](CC(=O)O)NC(=O)[C@H](CO)NC(=O)c1ccc[nH]1)C(=O)O | 1e+06 units/mL | 
3 | CC(=O)Nc1cccc(C(=O)N[C@@H](CO)C(=O)N[C@@H](CC(=O)O)C(=O)N[C@@H](CCCC[C@H](NC(=O)[C@H](CC(=O)O)NC(=O)[C@H](CO)NC(=O)c2cccc(NC(C)=O)n2)C(=O)N[C@@H](CCCCN)C(=O)O)C(=O)N[C@@H](CCCCN)C(=O)O)n1 | 2.4e+06 units/mL | 
4 | NCCCC[C@H](NC(=O)[C@H](CCCC[C@H](NC(=O)[C@H](CC(=O)O)NC(=O)[C@H](CO)NC(=O)c1nccc2ccccc12)C(=O)N[C@@H](CCCCN)C(=O)O)NC(=O)[C@H](CC(=O)O)NC(=O)[C@H](CO)NC(=O)c1nccc2ccccc12)C(=O)O | 0 units/mL | 
5 | NCCCC[C@H](NC(=O)[C@H](CCCC[C@H](NC(=O)[C@H](CC(=O)O)NC(=O)[C@H](CO)NC(=O)c1ncccc1O)C(=O)N[C@@H](CCCCN)C(=O)O)NC(=O)[C@H](CC(=O)O)NC(=O)[C@H](CO)NC(=O)c1ncccc1O)C(=O)O | 2.8e+06 units/mL | 
6 | O=C(N[C@H](CO)C(=O)O)c1nccnc1C(=O)N[C@H](CO)C(=O)O |  | HSF (C6 [1]; [3]): 0 units/mL
7 | O=C(N[C@H](CO)C(=O)O)c1cccnc1C(=O)N[C@@H](CO)C(=O)O | 0 units/mL | 
8 | O=C(N[C@@H](CO)C(=O)O)c1ccccc1C(=O)N[C@H](CO)C(=O)O | 0 units/mL | 
9 | NCCCC[C@H](NC(=O)[C@H](CCCC[C@H](NC(=O)[C@H](CC(=O)O)NC(=O)[C@H](CO)NC(=O)c1ccc2ccccc2n1)C(=O)N[C@@H](CCCCN)C(=O)O)NC(=O)[C@H](CC(=O)O)NC(=O)[C@H](CO)NC(=O)c1ccc2ccccc2n1)C(=O)O | 0 units/mL | 
10 | O=C(N[C@@H](CO)C(=O)O)c1cccnc1C(=O)N[C@H](CO)C(=O)O | 1.2e+06 units/mL | 
11 | NCCCC[C@H](NC(=O)[C@H](CCCC[C@H](NC(=O)[C@H](CC(=O)O)NC(=O)[C@H](CO)NC(=O)c1cc2ccccc2[nH]1)C(=O)N[C@@H](CCCCN)C(=O)O)NC(=O)[C@H](CC(=O)O)NC(=O)[C@H](CO)NC(=O)c1cc2ccccc2[nH]1)C(=O)O | 0 units/mL | 
12 | O=C(N[C@@H](CO)C(=O)O)c1nccnc1C(=O)N[C@H](CO)C(=O)O |  | HSF (C6 [1]; [3]): 0 units/mL
13 | NCCCC[C@H](NC(=O)[C@H](CCCC[C@H](NC(=O)[C@H](CC(=O)O)NC(=O)[C@H](CO)NC(=O)c1cnccn1)C(=O)N[C@@H](CCCCN)C(=O)O)NC(=O)[C@H](CC(=O)O)NC(=O)[C@H](CO)NC(=O)c1cnccn1)C(=O)O | 120000 units/mL | 
14 | O=C(NC(CO)C(=O)O)c1nccnc1C(=O)N[C@@H](CO)C(=O)O (single isomer, unassigned) | 0 units/mL | 

Reference: ChEMBL document CHEMBL1130138, “Design of low molecular weight hematoregulatory agents from the structure-activity relationship of a dimeric pentapeptide” (1997)
